Counter-ions that a name gives are not always drawn.
Biological target: T1, human LOXL2 (Homo sapiens, UniProt Q9Y4K0)
T1 construct: expressed in transfected cells; 10-20x concentrated conditioned media used as the enzyme source
T1 sequence (Q9Y4K0 26-774): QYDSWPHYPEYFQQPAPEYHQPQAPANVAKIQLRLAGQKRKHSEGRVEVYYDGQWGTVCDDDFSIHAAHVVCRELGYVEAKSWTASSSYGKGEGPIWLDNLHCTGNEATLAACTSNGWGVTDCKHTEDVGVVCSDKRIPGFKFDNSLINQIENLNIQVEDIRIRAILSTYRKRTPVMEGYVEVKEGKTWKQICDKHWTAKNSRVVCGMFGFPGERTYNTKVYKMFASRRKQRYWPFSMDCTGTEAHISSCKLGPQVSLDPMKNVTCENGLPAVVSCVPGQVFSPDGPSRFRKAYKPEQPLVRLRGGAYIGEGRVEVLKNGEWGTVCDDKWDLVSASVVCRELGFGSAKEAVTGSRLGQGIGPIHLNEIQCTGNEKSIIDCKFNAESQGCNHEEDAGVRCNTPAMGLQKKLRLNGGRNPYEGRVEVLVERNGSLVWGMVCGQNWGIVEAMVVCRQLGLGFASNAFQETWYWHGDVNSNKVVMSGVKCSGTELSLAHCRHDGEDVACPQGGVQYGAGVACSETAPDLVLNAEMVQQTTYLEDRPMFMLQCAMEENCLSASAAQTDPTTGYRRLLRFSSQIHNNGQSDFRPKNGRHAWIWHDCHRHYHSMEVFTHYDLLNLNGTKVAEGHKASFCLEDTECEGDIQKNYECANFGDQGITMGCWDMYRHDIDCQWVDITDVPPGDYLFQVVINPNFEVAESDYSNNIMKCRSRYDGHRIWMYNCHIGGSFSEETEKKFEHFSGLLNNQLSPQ
Assay: Human LOXL2 amine oxidase activity assay (Amplex Red fluorescence)
Type: biochemical
Details: concentrated conditioned media from CHO cells stably expressing human LOXL2; 2 h at 37° C. preincubation; DAP substrate
Method: Example B-1: Human LOXL2 Amine Oxidase Activity Assay
LOXL2 amine oxidase activity is evaluated by measuring Amplex Red fluorescence using 10-20× concentrated conditioned media from CHO cells stably expressing human LOXL2.
To assay for amine oxidase activity, 10 μL of the concentrated conditioned media is incubated with 2 μL of test compound in DMSO and 73 μL Assay Buffer (50 mM Borate Buffer, pH8) for 2 h at 37° C. After the 2 h incubation, 5 ul of 10 mM 1,5-Diaminopentane (DAP) diluted in Assay Buffer and 10 μl of Amplex Red Mix (8.5 μl Assay Buffer+0.5 μl of 10 mM Amplex Red+1 μl of 500 U/ml Horseradish Peroxidase) are added and the plate mixed and immediately placed on the FlexStaion for fluorescence measurements. Fluorescence is read in kinetic mode every 2 min for 1 hour at excitation=544 and emission=590. The amine oxidase activity is calculated from the slope of the linear portion of the curve.

SMILES | IC50 [nM]
C#C[C@H](CC(=O)OC)NC(=O)c1cccc(Oc2cc(CN)ncn2)c1 [Compound 1-75, (S)-Methyl 3-(3-((6-(aminomethyl)pyrimidin-4-yl)oxy)benzamido)pent-4-ynoate] | < 100
NCc1cc(OCc2cccc(C(=O)N3CCc4cccnc43)c2)ncn1 [Compound 1-92, (3-(((6-(Aminomethyl)pyrimidin-4-yl)oxy)methyl)phenyl)(2,3-dihydro-1H-pyrrolo[2,3-b]pyridin-1-yl)methanone] | < 100
NCc1cc(Oc2cccc(C(=O)Nc3ccc(C(=O)O)cc3)c2)ncn1 [Compound 1-4, 4-(3-((6-(Aminomethyl)pyrimidin-4-yl)oxy)benzamido)benzoic acid hydrochloride] | < 100
NCc1cc(Oc2cccc(C(=O)NCc3cc4ccccc4[nH]3)c2)ncn1 [Compound 1-53, N-((1H-Indol-2-yl)methyl)-3-((6-(aminomethyl)pyrimidin-4-yl)oxy)benzamide] | < 100
NCc1cc(OCc2cccc(C(=O)NCCN3CCOC3=O)c2)ncn1 [Compound 1-38, 3-(((6-(Aminomethyl)pyrimidin-4-yl)oxy)methyl)-N-(2-(2-oxooxazolidin-3-yl)ethyl)benzamide] | < 100
NCc1cc(Oc2cccc(C(=O)N3CCc4ccc(Cl)cc43)c2)ncn1 [Compound 1-50, (3-((6-(Aminomethyl)pyrimidin-4-yl)oxy)phenyl)(6-chloroindolin-1-yl)methanone] | < 100
NCc1cc(NCc2cccc(C(=O)NCc3cc4ccccc4s3)c2)ncn1 [Compound 1-97, 3-(((6-(Aminomethyl)pyrimidin-4-yl)amino)methyl)-N-(benzo[b]thiophen-2-ylmethyl)benzamide] | < 100
NCc1cc(Oc2cccc(C(=O)Nc3ccccc3)c2)ncn1 [Compound 1-3, 3-((6-(Aminomethyl)pyrimidin-4-yl)oxy)-N-phenylbenzamide hydrochloride] | < 100
NCc1cc(OCc2cccc(C(=O)NCc3ccccc3)c2)ncn1 [Compound 1-41, 3-(((6-(Aminomethyl)pyrimidin-4-yl)oxy)methyl)-N-benzylbenzamide] | < 100
NCc1cc(N2CCN(C(=O)Nc3ccccc3)CC2)ncn1 [Compound 1-105, 4-(6-(Aminomethyl)pyrimidin-4-yl)-N-phenylpiperazine-1-carboxamide] | 100 to 1000
CS(=O)(=O)CCNC(=O)c1cccc(Oc2cc(CN)ncn2)c1 [Compound 1-12, 3-((6-(Aminomethyl)pyrimidin-4-yl)oxy)-N-(2-(methylsulfonyl)ethyl)benzamide hydrochloride] | < 100
NCc1cc(NCc2cccc(C(=O)N3CCN(c4ccccc4)CC3)c2)ncn1 [Compound 1-100, (3-(((6-(Aminomethyl)pyrimidin-4-yl)amino)methyl)phenyl)(4-phenylpiperazin-1-yl)methanone] | 100 to 1000
CCn1ccc2c(Oc3cc(CN)ncn3)cccc21 [Compound 1-20, (6-((1-Ethyl-1H-indol-4-yl)oxy)pyrimidin-4-yl)methanamine] | < 100
NCc1cc(Oc2cccc(C(=O)NCCS(N)(=O)=O)c2)ncn1 [Compound 1-13, 3-((6-(Aminomethyl)pyrimidin-4-yl)oxy)-N-(2-sulfamoylethyl)benzamide hydrochloride] | < 100
NCc1cc(Oc2cccc(C(=O)NCc3nc4ccccc4o3)c2)ncn1 [Compound 1-68, 3-((6-(Aminomethyl)pyrimidin-4-yl)oxy)-N-(benzo[d]oxazol-2-ylmethyl)benzamide] | < 100
NCc1cc(OCc2cccc(C(=O)N3CCc4c([nH]c5ncccc45)C3)c2)ncn1 [Compound 1-90, (3-(((6-(Aminomethyl)pyrimidin-4-yl)oxy)methyl)phenyl)(5H-pyrrolo[2,3-b:5,4-c′]dipyridin-7(6H,8H,9H)-yl)methanone] | < 100
NCc1cc(Oc2cccc3[nH]ccc23)ncn1 [Compound 1-19, (6-((1H-Indol-4-yl)oxy)pyrimidin-4-yl)methanamine] | < 100
NCc1cc(OCc2cccc(C(=O)NCc3cc4ccccc4s3)c2)ncn1 [Compound 1-81, 3-(((6-(Aminomethyl)pyrimidin-4-yl)oxy)methyl)-N-(benzo[b]thiophen-2-ylmethyl)benzamide] | < 100

SMILES | IC50 [nM]
CS(=O)(=O)CCn1ccc2c(Oc3cc(CN)ncn3)cccc21 [Compound 1-25, (6-((1-(2-(Methylsulfonyl)ethyl)-1H-indol-4-yl)oxy)pyrimidin-4-yl)methanamine] | < 100
CC1(C)CCN(C(=O)c2cccc(Oc3cc(CN)ncn3)c2)CC1 [Compound 1-59, (3-((6-(Aminomethyl)pyrimidin-4-yl)oxy)phenyl)(4,4-dimethylpiperidin-1-yl)methanone] | < 100
NCc1cc(Oc2cccc(C(=O)N3CCc4cccnc43)c2)ncn1 [Compound 1-51, (3-((6-(Aminomethyl)pyrimidin-4-yl)oxy)phenyl)(2,3-dihydro-H-pyrrolo[2,3-b]pyridin-1-yl)methanone, hydrochloride] | < 100
NCc1cc(Oc2cccc(C(=O)N3CC[C@H](O)C3)c2)ncn1 [Compound 1-10, (S)-(3-((6-(Aminomethyl)pyrimidin-4-yl)oxy)phenyl)(3-hydroxypyrrolidin-1-yl)methanone hydrochloride] | < 100
NCc1cc(N2CCC(C(=O)Nc3ccccc3)CC2)ncn1 [Compound 1-103, 1-(6-(Aminomethyl)pyrimidin-4-yl)-N-phenylpiperidine-4-carboxamide] | 100 to 1000
NCc1cc(Oc2cccc(C(=O)NCc3cccnc3)c2)ncn1 [Compound 1-54, 3-((6-(Aminomethyl)pyrimidin-4-yl)oxy)-N-(pyridin-3-ylmethyl)benzamide] | < 100
NCc1cc(N2CC[C@@H](C(=O)Nc3ccccc3)C2)ncn1 [Compound 1-102, (R)-1-(6-(Aminomethyl)pyrimidin-4-yl)-N-phenylpyrrolidine-3-carboxamide] | 100 to 1000
NCc1cc(OCc2cccc(C(=O)N3CCc4ccncc43)c2)ncn1 [Compound 1-93, (3-(((6-(Aminomethyl)pyrimidin-4-yl)oxy)methyl)phenyl)(2,3-dihydro-1H-pyrrolo[2,3-c]pyridin-1-yl)methanone] | < 100
NCc1cc(Oc2cccc3c2CCC(=O)N3CCO)ncn1 [Compound 1-15, (5-((6-(Aminomethyl)pyrimidin-4-yl)oxy)-1-(2-hydroxyethyl)-3,4-dihydroquinolin-2(1H)-one hydrochloride] | < 100
CC(Oc1cc(CN)ncn1)c1cccc(C(=O)Nc2ccccc2)c1 (racemic) [Compound 1-95, Racemic-3-(1-((6-(aminomethyl)pyrimidin-4-yl)oxy)ethyl)-N-phenylbenzamide] | 100 to 1000
CS(=O)(=O)CCNC(=O)c1cccc(COc2cc(CN)ncn2)c1 [Compound 1-37, 3-(((6-(Aminomethyl)pyrimidin-4-yl)oxy)methyl)-N-(2-(methylsulfonyl)ethyl)benzamide] | < 100
NCc1cc(Oc2cccc(C(=O)NCc3ccc(C(=O)O)cc3)c2)ncn1 [Compound 1-5, 4-((3-((6-(Aminomethyl)pyrimidin-4-yl)oxy)benzamido)methyl)benzoic Acid Hydrochloride] | < 100
CN1CC(CNC(=O)c2cccc(COc3cc(CN)ncn3)c2)OC1=O (racemic) [Compound 1-36, Racemic-3-(((6-(aminomethyl)pyrimidin-4-yl)oxy)methyl)-N-((3-methyl-2-oxooxazolidin-5-yl)methyl)benzamide] | < 100
NCc1cc(OCc2cccc(C(=O)NCc3cc4cccnc4[nH]3)c2)ncn1 [Compound 1-87, N-((1H-pyrrolo[2,3-b]pyridin-2-yl)methyl)-3-(((6-(aminomethyl)pyrimidin-4-yl)oxy)methyl)benzamide] | < 100
NCc1cc(Oc2cccc3c2ccn3Cc2cccc(C(=O)O)c2)ncn1 [Compound 1-28, 3-((4-((6-(Aminomethyl)pyrimidin-4-yl)oxy)-1H-indol-1-yl)methyl)benzoic acid] | < 100
NCc1cc(Oc2cccc(C(=O)N3CCc4c([nH]c5ncccc45)C3)c2)ncn1 [Compound 1-71, (3-((6-(Aminomethyl)pyrimidin-4-yl)oxy)phenyl)(5H-pyrrolo[2,3-b:5,4-c′]dipyridin-7(6H,8H,9H)-yl)methanone] | < 100
NCc1cc(Oc2cccc3c2ccn3CCO)ncn1 [Compound 1-48, 2-(4-((6-(Aminomethyl)pyrimidin-4-yl)oxy)-1H-indol-1-yl)ethan-1-ol] | < 100

Source: patent publication US20180186755A1, “LYSYL OXIDASE-LIKE 2 INHIBITORS AND USES THEREOF” (PharmAkea, Inc., priority 2015, published 2018)
